Assay results: patent publication US20250188078A1, “SMALL MOLECULE INHIBITORS OF THE CRL4 UBIQUITIN LIGASE” (Cornell University, priority 2022, published 2025)

Experiments:
[1] = tested on: CUL4A^high MDA-MB-468 breast cancer cells; experiment: Cell killing in CUL4-high MDA-MB-468 cells (CellTiter Glo); assay type: cell-based; details: Homo sapiens, 192 h; MDA-MB-468 cells, 8 days treatment; read-out: EC50 CUL4-High Cells (cell killing)
Procedure: EC50 refers to concentration of compound that induces 50% killing of CUL4A^high MDA-MB-468 cells (see Table 1, column 6). CUL4A^high MDA-MB-468 breast cancer cells were seeded in 96 well plates. After 24 hours, cells were treated with DMSO or compounds. Change fresh medium and compounds. After 8 days treatment, cell viability was examined by using CellTiter Glo kit (Promega #7570) following the manufacturer's guidelines (https://www.promega.com/-/media/files/resources/protocols/technicalbulletins/0/celltiter-glo-luminescent-cell-viability-assay protocol.pdf?rev=0d95c232094b41daa06d0c110d1d916f&sc_lang=en, hereby incorporated by reference in its entirety for all purposes). EC50 concentration was calculated by Prism 8 XY analysis nonlinear regression (curve fit-Log(inhibitor) vs response). Lower EC50 indicates high cell killing potential in CUL4^high MDA-MB-468 cells.
CUL4A^high MDA-MB-468, CUL4^low (T47D), and MCF7 breast cancer cells were seeded in 96 well plates separately. Cells were treated with DMSO, or from 0 to 20 μM compound respectively. Replace with fresh medium and compounds every 48 hours. After 8 days treatment, cell viability was examined by CellTiter Glo kit (Promega #7570). First, transfer the appropriate volume (10 ml for Cat. #G7570) of CellTiter-Glo® Buffer into the amber bottle containing CellTiter-Glo® Substrate to reconstitute the lyophilized enzyme/substrate mixture. This forms the CellTiter-Glo® Reagent. Second, add CellTiter-Glo® Reagent in an equal volume (100 μl per well for 96-well plates) to all wells. Mix contents for 2 minutes on an orbital shaker to induce cell lysis. Incubate at room temperature for 15 minutes to stabilize luminescent signal. Then record luminescence. EC50 concentration was calculated by Prism 8 XY analysis nonlinear regression (curve fit-Log(inhibitor) vs response).

[2] = target: CUL4A-DDB1-BPB interaction (Homo sapiens (Human), UniProt Q16531); experiment: AlphaLISA in vitro binding assay, CUL4A and DDB1-BPB binding; details: inhibition of CUL4A and DDB1-BPB binding
Excerpt: AlphaLISA IC50 (see Table 1, column 4) means the half maximal inhibitory concentration of compound that inhibits CUL4A and DDB1-BPB binding. Our lab established and optimized 384 well-based AlphaLISA in vitro binding assay for testing small molecule inhibitory activity. Small molecule libraries were screened for compounds that disrupt CUL4A-DDB1-BPB interaction using AlphaScreen detection beads (PerkinElmer, #AL112C and #6765300) following the manufacturer's protocol (https://www.perkinelmer.com/PDFs/downloads/GDE-Alphatech.pdf, hereby incorporated by reference in its entirety for all purposes). The 384-well assay plates (Greiner Bio-one, #781075) were read in Synergy Neo2 Hybrid Multi-Mode Reader (BioTek). The IC50 was calculated by Prism 8 XY analysis nonlinear regression (curve fit-Log(inhibitor) vs response).

[3] = Dynamic light scattering (DLS) solubility assay; assay type: physicochemical; details: normalized intensity ratio of 25 μM compound vs DMSO, in PBS
Procedure: Dynamic light scattering (DLS) (see Table 1, column 3) is a tool for studying the diffusion behavior of macromolecules in solution. To profile compound solubility, DLS assay was developed for measuring aggregation of small molecule compounds. Compound stock solution was prepared in DMSO. Dilution series were made for each compound in DMSO to ensure a final 1× assay concentration range of 200 μM to 0.78 μM. For example, if the final DMSO concentration was 1%, compounds were prepared at 100× concentrations ranging from […] to 78 μM. Dilute compounds in PBS solution to final concentration. Place 60 μl/well in 96 well plates and 3 replicates for each sample. Data were collected using a DynaPro Plate Reader III (WYATT Technologies, Inc., USA). The instrument was adjusted to measure the optimal light scattering intensity according to the manufacturer's instructions. […] The ratio over 2 means (−) insoluble. The ratio below 2 means (+) soluble and around 2 means (+/−).

[4] = tested on: UV-induced CUL4-dependent DDB2 degradation in MEF-F-DDB2 cells; experiment: Cell-based assay for inhibition of UV-induced CUL4-dependent DDB2 degradation; parameters: key: (+) means that the normalized DDB2/α-tubulin ratio is higher in the compound treated sample than DMSO treated sample; (−) means that no change happens between compound treated sample with control sample; details: DDB2/α-tubulin by Western blot
Procedure: Cell-based assay for inhibition of UV-induced CUL4-dependent DDB2 degradation by small molecule CUL4 inhibitors (see Table 1, column 5). Briefly, MEF-F-DDB2 cells were seeded in 6-well plates. DMSO or indicated concentrations of compounds were added to MEF-F-DDB2 cells growing in serum-free medium. MEF-F-DDB2 cells were washed once with PBS and subsequently irradiated with a Philips TUV lamp (predominantly 254 nm) at a dose rate of 0.2 W/m^2. DMSO or compounds were added to MEF-F-DDB2 cells, and then cells were harvested. The cells were lysed, and equal amounts of proteins were resolved on SDS-PAGE gel and Flag-DDB2 levels were detected using anti-DDB2 (D4C4) rabbit antibody (Cell signaling, #5416S). α-tubulin (Proteintech, #66031-1-Ig) was used as an internal loading control. (+) means that the normalized DDB2/α-tubulin ratio is higher in the compound treated sample than DMSO treated sample. (−) means that no change happens between compound treated sample with control sample.

Sequence of CUL4A-DDB1-BPB interaction (Q16531 403-706): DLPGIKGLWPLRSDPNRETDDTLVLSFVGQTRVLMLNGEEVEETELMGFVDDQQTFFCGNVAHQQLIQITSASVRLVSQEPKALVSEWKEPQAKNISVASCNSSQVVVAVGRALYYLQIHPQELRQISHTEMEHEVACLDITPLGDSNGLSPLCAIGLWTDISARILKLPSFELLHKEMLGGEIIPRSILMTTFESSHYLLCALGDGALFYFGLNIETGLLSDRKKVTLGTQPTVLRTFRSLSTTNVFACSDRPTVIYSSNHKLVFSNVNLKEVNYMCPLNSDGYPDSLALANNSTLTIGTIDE

CN(c1ccc(-c2nc(C(=O)O)cc3c2[nH]c2cc(F)c(F)cc23)cc1)S(=O)(=O)c1ccccc1 [PA1-7, 6,7-difluoro-1-(4-(N-methylphenylsulfonamido)phenyl)-9H-pyrido[3,4-b]indole-3-carboxylic acid]
EC50 [1]: 8650 nM
IC50 [2]: 127 nM
Solubility (DLS Assay) [3]: -(insoluble)

COC(=O)c1cc2c([nH]c3cc(C#N)ccc32)c(-c2ccc(N(C)S(=O)(=O)c3ccccc3)cc2)n1 [PA1-9 ESTER, methyl 7-cyano-1-(4-(N-methylphenylsulfonamido)phenyl)-9H-pyrido[3,4-b]indole-3-carboxylate]
AlphaLisa IC50 [2]: Neg
Solubility (DLS Assay) [3]: -(insoluble)

CN(c1ccc(-c2nc(C(=O)O)cc3c2[nH]c2cc(C#N)ccc23)cc1)S(=O)(=O)c1ccccc1 [PA1-9, 7-cyano-1-(4-(N-methylphenylsulfonamido)phenyl)-9H-pyrido[3,4-b]indole-3-carboxylic acid]
EC50 [1]: 7870 nM
IC50 [2]: 85 nM
Degradation Inhibition (inhibition of UV-induced DDB2 degradation) [4]: +
Solubility (DLS Assay) [3]: -(insoluble)

O=C(O)c1cc2c([nH]c3cc(F)ccc32)c(-c2ccc(OCc3ccccc3)cc2)n1 [PA1-11, 1-(4-benzyloxyphenyl)-7-fluoro-9H-pyrido[3,4-b]indole-3-carboxylic acid]
EC50 [1]: 9900 nM
IC50 [2]: 5840 nM
Degradation Inhibition (inhibition of UV-induced DDB2 degradation) [4]: −
Solubility (DLS Assay) [3]: -(insoluble)

O=C(O)c1cc2c([nH]c3cc(F)ccc32)c(-c2ccc(OCc3ccccn3)cc2)n1 [PA1-11H, 7-fluoro-1-(4-(pyridin-2-ylmethoxy)phenyl)-9H-pyrido[3,4-b]indole-3-carboxylic acid]
Degradation Inhibition (inhibition of UV-induced DDB2 degradation) [4]: −
Solubility (DLS Assay) [3]: -(insoluble)

CN(c1ccc(-c2nc(C(=O)O)cc3c2[nH]c2cc(F)ccc23)c(F)c1)S(=O)(=O)c1ccccc1 [PA1-12, 1-[4-[benzenesulfonyl(methyl)amino]-2-fluoro-phenyl]-7-fluoro-9H-pyrido[3,4-b]indole-3-carboxylic acid]
EC50 [1]: 7370 nM
IC50 [2]: 750 nM
Degradation Inhibition (inhibition of UV-induced DDB2 degradation) [4]: +
Solubility (DLS Assay) [3]: -(insoluble)

CN1CCN(S(=O)(=O)N(C)c2ccc(-c3nc(C(=O)O)cc4c3[nH]c3cc(F)ccc34)cc2)CC1 [PA1-13A-3, 1-(4-(N,4-dimethylpiperazine-1-sulfonamido)phenyl)-7-fluoro-9H-pyrido[3,4-b]indole-3-carboxylic acid]
EC50 [1]: 7250 nM
IC50 [2]: 450 nM
Degradation Inhibition (inhibition of UV-induced DDB2 degradation) [4]: −
Solubility (DLS Assay) [3]: -(insoluble)

COC(=O)c1cc2c([nH]c3cc(F)cc(C)c32)c(-c2ccc(N(C)S(=O)(=O)c3ccccc3)cc2)n1 [PA1-14 ESTER, methyl 1-[4-[benzenesulfonyl(methyl)amino]phenyl]-7-fluoro-5-methyl-9H-pyrido[3,4-b]indole-3-carboxylate]
AlphaLisa IC50 [2]: Neg
Degradation Inhibition (inhibition of UV-induced DDB2 degradation) [4]: −
Solubility (DLS Assay) [3]: -(insoluble)

Cc1ccc(-c2nc(C(=O)O)cc3c2[nH]c2ccccc23)cc1 [PA2]
IC50 [2]: 3430 ± 1570 nM
Degradation Inhibition (inhibition of UV-induced DDB2 degradation) [4]: +
Solubility (DLS Assay) [3]: -(insoluble)

O=C(O)c1cc2c([nH]c3ccccc32)c(-c2ccc(F)cc2)n1 [PA3]
IC50 [2]: 1410 ± 310 nM
Degradation Inhibition (inhibition of UV-induced DDB2 degradation) [4]: +
Solubility (DLS Assay) [3]: +/−

O=C(O)c1cc2c([nH]c3ccccc32)c(-c2cccc(F)c2)n1 [PA5]
IC50 [2]: 2340 ± 770 nM
Solubility (DLS Assay) [3]: -(insoluble)

Cc1cccc(-c2nc(C(=O)O)cc3c2[nH]c2ccccc23)c1 [PA7]
IC50 [2]: 10200 ± 3330 nM
Solubility (DLS Assay) [3]: -(insoluble)

COc1cccc(-c2nc(C(=O)O)cc3c2[nH]c2ccccc23)c1 [PA8]
IC50 [2]: 7750 ± 1820 nM
Solubility (DLS Assay) [3]: -(insoluble)

NC(=O)c1cc2c([nH]c3ccccc32)c(-c2ccc([N+](=O)[O-])cc2)n1 [PA9, 1-(4-nitrophenyl)-9H-pyrido[3,4-b]indole-3-carboxamide]
AlphaLisa IC50 [2]: Neg
Degradation Inhibition (inhibition of UV-induced DDB2 degradation) [4]: +
Solubility (DLS Assay) [3]: -(insoluble)

N#Cc1ccc(-c2nc(C(=O)O)cc3c2[nH]c2ccccc23)cc1 [PA19]
IC50 [2]: 2010 ± 440 nM
Degradation Inhibition (inhibition of UV-induced DDB2 degradation) [4]: +
Solubility (DLS Assay) [3]: -(insoluble)

O=C(O)c1cc2c([nH]c3ccccc32)c(-c2cc(F)c(F)c(F)c2)n1 [PA33]
IC50 [2]: 2000 ± 380 nM
Solubility (DLS Assay) [3]: -(insoluble)

CS(=O)(=O)c1ccc(-c2nc(C(=O)O)cc3c2[nH]c2ccc(F)cc23)cc1 [PA71]
IC50 [2]: 360 ± 40 nM
Degradation Inhibition (inhibition of UV-induced DDB2 degradation) [4]: −
Solubility (DLS Assay) [3]: -(insoluble)

COc1ccc2[nH]c3c(-c4ccc(S(C)(=O)=O)cc4)nc(C(=O)O)cc3c2c1 [PA74]
IC50 [2]: 1830 ± 90 nM
Degradation Inhibition (inhibition of UV-induced DDB2 degradation) [4]: +
Solubility (DLS Assay) [3]: -(insoluble)
